Values of other authors, collected in US6048878A, “Substituted piperidine derivatives as selective agonists of 5-HT receptors” (Merck Sharp & Dohme Ltd., priority 1995, dated 2000).

Experiments:
[1] = test system: human 5-HT1D.sbsb.α and 5-HT1D.sbsb.β receptor subtypes; settings: cf. WO-A-91/17174, Table 1
[2] = therapeutic doses

**Q.** With `CNS(=O)(=O)Cc1ccc2[nH]cc(CCN(C)C)c2c1` [sumatriptan] as the compound, how does the “discrimination between the human 5-HT1D.sbsb.α and 5-HT1D.sbsb.β receptor subtypes” value [1] read?
**A.** barely discriminates

**Q.** And the “adverse cardiovascular events in humans” value [2]?
**A.** certain adverse cardiovascular events
